Assay results: the supplement of paper PMC10307832

Key:
Test in all cases: relative viability (nuclei count vs DMSO), 5 days (fraction); higher = more cells survive
NVP-TAE684 + Decitabine = compound: COc1cc(N2CCC(N3CCN(C)CC3)CC2)ccc1Nc1ncc(Cl)c(Nc2ccccc2S(=O)(=O)C(C)C)n1 [NVP-TAE684] + Nc1ncn([C@H]2C[C@H](O)[C@@H](CO)O2)c(=O)n1 [Decitabine] (partner 2 µM)
In short: (§1)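 Lung cancer cell lines were pin-tool dosed in 1536-well plates on the day after seeding, with either a lone drug or a fixed anchor-drug dose plus five library-drug doses (not always all listed) in √10 steps. Nuclei were counted on 4× images after 5 days. Relative viability is the ratio of treated-well to vehicle-well nuclei counts, with each value a median of duplicate plates.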

[1] = compound: C1=CC=C2C(=C1)N=C(S2)C(C#N)C3=NC(=NC=C3)NCCC4=CN=CC=C4 + Cc1nc(NC(=O)N2CCC[C@H]2C(N)=O)sc1-c1ccnc(C(C)(C)C(F)(F)F)c1 [Alpelisib] (partner 2 µM)
In short: as §1

[2] = compound: C1=CC=C2C(=C1)N=C(S2)C(C#N)C3=NC(=NC=C3)NCCC4=CN=CC=C4 + N=C(N)NC(=N)NCCc1ccccc1 [Phenformin] (partner 250 µM)
In short: as §1

[3] = compound: C1=CC=C2C(=C1)N=C(S2)C(C#N)C3=NC(=NC=C3)NCCC4=CN=CC=C4 + CCNC(=O)c1noc(-c2cc(C(C)C)c(O)cc2O)c1-c1ccc(CN2CCOCC2)cc1 [Luminespib] (partner 0.01 µM)
In short: as §1

Cell Line	relative viability (NVP-TAE684 + Decitabine; first compound 0.6325 µM)	relative viability (NVP-TAE684 + Decitabine; first compound 2 µM)	relative viability ([1]; first compound 0.005 µM)	relative viability ([1]; first compound 0.01581 µM)	relative viability ([1]; first compound 0.05 µM)	relative viability ([1]; first compound 0.1581 µM)	relative viability ([1]; first compound 0.5 µM)	relative viability ([2]; first compound 0.005 µM)	relative viability ([2]; first compound 0.01581 µM)	relative viability ([2]; first compound 0.05 µM)	relative viability ([2]; first compound 0.1581 µM)	relative viability ([2]; first compound 0.5 µM)	relative viability ([3]; first compound 0.005 µM)	relative viability ([3]; first compound 0.01581 µM)	relative viability ([3]; first compound 0.05 µM)	relative viability ([3]; first compound 0.1581 µM)	relative viability ([3]; first compound 0.5 µM)	relative viability (NVP-TAE684 + Decitabine; first compound 0.2 µM)
201T	0.867	0.684	0.995	1.08	1.04	1.03	0.967	0.415	0.425	0.423	0.504	0.346	1.06	1.06	1.09	1.07	1.07	
A549	0.248	0.286	0.64	0.9	0.696	1.02	0.82	0.254		0.146	0.246	0.212						
A-427	0.53	0.44	1.08	1.01	0.996	1.09	1.16	0.252	0.34	0.367	0.322	0.288	0.784	1	0.861	1.18	0.965	0.58
ABC-1	0.938	0.679	1.05	1.05	1.2	0.961	1.07	0.245	0.22	0.241	0.219	0.251		0.736	0.374	0.855	0.737	1.14
BEN	0.622	0.643	0.763	1.1	0.931	0.99	0.932	0.243	0.28	0.286	0.304	0.46	0.081	0.337	0.254	0.688	0.342	
CAL-12T			0.982	1.23	1.31	1.49	1.05	0.539	0.433	0.584	0.619	0.485	0.371	0.361	0.422	0.435	0.235	
COR-L23	0.339	0.252	0.748	0.756	0.841	0.877	0.742	0.355	0.49	0.467	0.465	0.377	0.404	0.825	0.727	1.06	0.614	0.415
COR-L 105	0.701	0.429	1.06	1.22	0.856	0.955	0.678	0.322	0.487	0.582	0.525	0.411	0.782	0.848	0.85	0.826	0.657	0.681
Calu-6			0.957	0.921	0.921	1.03	0.998											
ChaGo-K-1	0.52	0.427							0.373	0.48	0.54	0.536		0.678	0.594	0.693	0.67	0.536
EBC-1			0.819	0.935	0.76	0.829	0.925											
EKVX	0.354	0.325	0.763	0.981	0.902	0.844	0.69	0.245	0.239	0.243	0.273	0.23	0.953	0.837	0.868	0.673	0.842	0.317
EMC-BAC-2	0.946	0.708	0.566	0.768	0.686	0.76	0.67	0.413	0.517	0.516	0.657	0.368	0.766	1.32	1.11	1.28	1.03	0.978
EPLC-272H	0.357	0.299	0.854	0.819	1.02	1.03	0.768	0.225	0.243	0.275	0.286	0.311	0.248	0.229	0.169	0.392	0.302	0.326
H3255	0.547	0.506	0.545	0.685	0.591	0.806	0.692	0.385	0.354	0.402	0.62	0.366	0.779	0.884	0.916	1.11	0.944	0.582
HARA	0.55	0.234	0.794	0.794	0.744	0.893	0.838	0.474	0.484	0.488	0.46	0.465	0.527	0.802	0.452	0.666	0.675	0.664
HCC-15	0.524	0.484	0.927	0.833	0.905	0.954	0.853	0.427	0.437	0.455	0.579	0.401	0.478	0.255	0.237	0.354	0.27	0.582
HCC-44	0.955	0.876	0.716	0.835	0.737	0.915	0.638	0.271	0.183	0.211	0.296	0.162	0.988		1.03	1.05	0.951	0.946
HCC-78	0.634	0.49	0.366	0.316	0.353	0.366	0.378	0.677	0.635	0.656	0.814	0.741						0.636

Cell Line	relative viability (NVP-TAE684 + Decitabine; first compound 0.6325 µM)	relative viability (NVP-TAE684 + Decitabine; first compound 2 µM)	relative viability ([1]; first compound 0.005 µM)	relative viability ([1]; first compound 0.01581 µM)	relative viability ([1]; first compound 0.05 µM)	relative viability ([1]; first compound 0.1581 µM)	relative viability ([1]; first compound 0.5 µM)	relative viability ([2]; first compound 0.005 µM)	relative viability ([2]; first compound 0.01581 µM)	relative viability ([2]; first compound 0.05 µM)	relative viability ([2]; first compound 0.1581 µM)	relative viability ([2]; first compound 0.5 µM)	relative viability ([3]; first compound 0.005 µM)	relative viability ([3]; first compound 0.01581 µM)	relative viability ([3]; first compound 0.05 µM)	relative viability ([3]; first compound 0.1581 µM)	relative viability ([3]; first compound 0.5 µM)	relative viability (NVP-TAE684 + Decitabine; first compound 0.2 µM)
HCC-366	0.401	0.315	0.428	0.475	0.314	0.475	0.389	0.551	0.615	0.547	0.722	0.601						0.37
HCC-827	0.279	0.311	0.962	1.01	0.943	1.15	1.02	0.376	0.455	0.358	0.46	0.422	0.464	0.833	0.579	1.13	0.785	0.301
HOP-62	0.236	0.266	0.966	1.34	1.09	1.3	1.21	0.4	0.764	0.633	0.788	0.523	0.749	0.948	0.861	0.973	0.898	0.242
IA-LM				0.628	0.608	0.916	0.734											
LC-2-ad	0.78	0.606	0.768	0.867	0.822	0.966	0.734	0.575	0.507	0.541	0.598	0.611	0.807	1.06	0.965	1.17	0.91	0.754
LCLC-97TM1	0.184	0.153	0.217	0.208	0.257	0.257	0.217	0.429	0.417	0.403	0.431	0.407	0.748	0.896	0.795	0.947	0.685	0.208
LCLC-103H	0.69	0.683	0.926	0.983	0.971	0.901	0.915	0.289	0.336	0.286	0.369	0.298	0.773	0.854	0.905	0.944	0.96	0.7
LK-2	0.205	0.146			0.993	1.3	1.11	0.392	0.289	0.396	0.58	0.33	0.206	0.181	0.209	0.176	0.194	0.24
NCI-H522	0.731	0.66						0.649	0.642	0.61	0.691	0.588	1.07	1.05	1.12	1.15	1.12	0.604
NCI-H1299			1.06	1.14	1.04	1.13	1.1											
NCI-H1563			0.924	0.869	0.947	0.962	0.861	0.595	0.62	0.635	0.673	0.667	0.534	0.52	0.507	0.553	0.552	
NCI-H1623								0.62	0.582	0.567	0.617	0.579	0.932	0.466	0.508	0.322	0.346	
NCI-H1648	0.449	0.27																0.39
NCI-H1650	0.411	0.343						0.375	0.335	0.523	0.402	0.377	0.171	0.191	0.176	0.204	0.2	0.399
NCI-H1703			0.338	0.31	0.344	0.362	0.357											
NCI-H2228			0.513	0.715	0.754	0.818	0.524	0.19	0.281	0.299	0.316	0.314	0.146	0.117	0.153	0.163	0.142	
NCI-H2342	0.835	0.632						0.495	0.591	0.674	0.606	0.614	0.555	0.708	0.794	0.776	0.841	0.727
SW 900	0.444	0.421						0.418	0.704	0.627	1.02	0.338	0.164	0.205	0.175	0.197	0.179	0.433
